The values that follow come from US9902722B2, “Biaryl kinase inhibitors” (BRISTOL-MYERS SQUIBB COMPANY, priority 2014, dated 2018).

This experiment has as its target GST-Xa-hAAK1 (Homo sapiens (Human), UniProt Q2M2I8). The experiment in a line: AAK1 Kinase Assay.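 Also: each compound tested across an eleven-point concentration series, with IC50 obtained through non-linear regression fitting.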 It is filed as biochemical. Particulars: bacterially expressed GST-Xa-hAAK1 3.5 nM; ATP 22 μM; peptide substrate 1.5 μM; 3 hours at room temperature; Caliper LabChip 3000.

The IC50 is the point on the concentration scale where inhibition reaches its midpoint. Higher therefore signals a need for much substance.

Chain of GST-Xa-hAAK1 (Q2M2I8 whole entry): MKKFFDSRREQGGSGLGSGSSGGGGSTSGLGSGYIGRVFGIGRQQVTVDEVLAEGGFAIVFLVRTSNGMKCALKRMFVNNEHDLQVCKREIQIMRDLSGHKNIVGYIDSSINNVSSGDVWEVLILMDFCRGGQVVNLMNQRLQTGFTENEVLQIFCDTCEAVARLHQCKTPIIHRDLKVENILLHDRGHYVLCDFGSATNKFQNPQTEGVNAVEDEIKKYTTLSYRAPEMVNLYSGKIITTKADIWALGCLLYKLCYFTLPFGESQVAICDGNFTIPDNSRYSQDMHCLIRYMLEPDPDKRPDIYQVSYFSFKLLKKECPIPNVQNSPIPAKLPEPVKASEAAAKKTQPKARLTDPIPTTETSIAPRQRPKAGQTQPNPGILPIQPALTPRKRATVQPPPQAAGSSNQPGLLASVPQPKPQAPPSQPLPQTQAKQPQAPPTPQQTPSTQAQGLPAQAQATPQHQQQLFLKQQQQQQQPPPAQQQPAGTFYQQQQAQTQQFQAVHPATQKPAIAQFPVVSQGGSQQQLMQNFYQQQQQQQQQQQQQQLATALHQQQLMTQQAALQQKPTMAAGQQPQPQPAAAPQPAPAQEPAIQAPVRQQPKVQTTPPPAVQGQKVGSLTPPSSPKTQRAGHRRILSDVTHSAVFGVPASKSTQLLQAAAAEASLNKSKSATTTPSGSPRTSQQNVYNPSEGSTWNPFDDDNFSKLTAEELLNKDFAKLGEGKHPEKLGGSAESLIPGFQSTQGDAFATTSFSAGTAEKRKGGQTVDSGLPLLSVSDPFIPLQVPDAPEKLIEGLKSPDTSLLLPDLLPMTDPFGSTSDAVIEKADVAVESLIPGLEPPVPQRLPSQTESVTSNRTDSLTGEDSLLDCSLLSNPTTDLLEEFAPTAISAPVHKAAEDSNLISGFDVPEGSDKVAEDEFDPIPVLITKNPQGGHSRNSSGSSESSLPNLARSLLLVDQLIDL

With `Cc1nccc(-c2ccc(OC[C@@](C)(N)CC(C)C)c(C(F)F)n2)n1` [Example 139, (S)-1-((2-(difluoromethyl)-6-(2-methylpyrimidin-4-yl)pyridin-3-yl)oxy)-2,4-dimethylpentan-2-amine], the IC50 is 0.77 nM. In other words, the sub-nanomolar range.
For `CCc1cc(-c2cc(C(F)F)c(OC[C@@](C)(N)CC(C)C)cn2)ccn1` [Example 141, (S)-1-((4-(difluoromethyl)-2′-ethyl-[2,4′-bipyridin]-5-yl)oxy)-2,4-dimethylpentan-2-amine] the value was 1.8 nM.
Compound `Cc1cc(-c2cc(C(F)(F)F)c(OC[C@@](C)(N)CC(C)C)cn2)ccn1` [Example 144, (S)-2,4-dimethyl-1-((2′-methyl-4-(trifluoromethyl)-[2,4′-bipyridin]-5-yl)oxy)pentan-2-amine] registered an IC50 of 1.3 nM.
The compound `CC(C)C[C@](C)(N)COc1cnc(-c2ccnc3ccccc23)cc1C(F)(F)F` [Example 145, (S)-2,4-dimethyl-1-((6-(quinolin-4-yl)-4-(trifluoromethyl)pyridin-3-yl)oxy)pentan-2-amine] yielded an IC50 of 0.24 nM.
Compound `COC(=O)Nc1cc(-c2cc(C(F)(F)F)c(OC[C@@](C)(N)CC(C)C)cn2)ccn1` [Example 146, (S)-methyl (5-((2-amino-2,4-dimethylpentyl)oxy)-4-(trifluoromethyl)-[2,4′-bipyridin]-2′-yl)carbamate] displayed an IC50 of 0.19 nM. The IC50 values of the last two compounds are within 1.5-fold of each other.
For `CC(C)C[C@](C)(N)COc1cnc(-c2ccnc(Cl)c2)cc1C(F)F` [Example 147, (S)-1-((2′-chloro-4-(difluoromethyl)-[2,4′-bipyridin]-5-yl)oxy)-2,4-dimethylpentan-2-amine] the value was 0.56 nM; for `Cc1nc(-c2ccnc(N)c2F)ccc1OC[C@@](C)(N)CC(C)C` [Example 153, (S)-5-((2-amino-2,4-dimethylpentyl)oxy)-3′-fluoro-6-methyl-[2,4′-bipyridin]-2′-amine], 1.9 nM.
For `COC(=O)Nc1cc(-c2ccc(OC[C@@](C)(N)CC(C)C)c(C)n2)c(F)cn1` [Example 155, (S)-methyl (5-((2-amino-2,4-dimethylpentyl)oxy)-5′-fluoro-6-methyl-[2,4′-bipyridin]-2′-yl)carbamate] the value was 57 nM; for `COC(=O)Nc1nccc(-c2ccc(OC[C@@](C)(N)CC(C)C)c(C)n2)c1F` [Example 157, (S)-methyl (5-((2-amino-2,4-dimethylpentyl)oxy)-3′-fluoro-6-methyl-[2,4′-bipyridin]-2′-yl)carbamate], 19 nM.
For `CC(C)C[C@](C)(N)COc1ccc(-c2ccnc(Cl)c2)nc1C(F)F` [Example 158, (S)-1-((2′-chloro-6-(difluoromethyl)-[2,4′-bipyridin]-5-yl)oxy)-2,4-dimethylpentan-2-amine] the value was 5.4 nM; for `CC(C)C[C@](C)(N)COc1ccc(-c2ccnc(Cl)c2F)nc1C(F)F` [Example 159, (S)-1-((2′-chloro-6-(difluoromethyl)-3′-fluoro-[2,4′-bipyridin]-5-yl)oxy)-2,4-dimethylpentan-2-amine], 1.5 nM.
Compound `Cc1nccc(-c2ccc(OC[C@@](C)(N)CC(C)C)c(C(F)F)n2)c1F` [Example 160, (S)-1-((6-(difluoromethyl)-3′-fluoro-2′-methyl-[2,4′-bipyridin]-5-yl)oxy)-2,4-dimethylpentan-2-amine] yielded an IC50 of 0.8 nM.
Under `Cc1cc(-c2cc(C(F)F)c(OC[C@@](C)(N)CC(C)C)cn2)cnn1` [Example 162, (S)-1-((4-(difluoromethyl)-6-(6-methylpyridazin-4-yl)pyridin-3-yl)oxy)-2,4-dimethylpentan-2-amine] stands 530 nM; under `Cc1cc(-c2ccc(OC[C@@](C)(N)CC(C)C)c(C(F)F)n2)cnn1` [Example 163, (S)-1-((2-(difluoromethyl)-6-(6-methylpyridazin-4-yl)pyridin-3-yl)oxy)-2,4-dimethylpentan-2-amine], 1100 nM; under `Cc1cc(-c2cc(C(F)(F)F)c(OC[C@](C)(N)CC(C)C)cn2)ccn1` [Example 164, (R)-2,4-dimethyl-1-((2′-methyl-4-(trifluoromethyl)-[2,4′-bipyridin]-5-yl)oxy)pentan-2-amine], 254 nM.
Under `CC(C)C[C@@](C)(N)COc1cnc(-c2ccnc3ccccc23)cc1C(F)(F)F` [Example 165, (R)-2,4-dimethyl-1-((6-(quinolin-4-yl)-4-(trifluoromethyl)pyridin-3-yl)oxy)pentan-2-amine] stands 21 nM.
Under `COC(=O)Nc1cc(-c2cc(C(F)(F)F)c(OC[C@](C)(N)CC(C)C)cn2)ccn1` [Example 166, (R)-methyl (5-((2-amino-2,4-dimethylpentyl)oxy)-4-(trifluoromethyl)-[2,4′-bipyridin]-2′-yl)carbamate] stands 20 nM.
Consider `CCc1cc(-c2cc(C(F)F)c(OC[C@](C)(N)CC(C)C)cn2)ccn1` [Example 170, (R)-1-((4-(difluoromethyl)-2′-ethyl-[2,4′-bipyridin]-5-yl)oxy)-2,4-dimethylpentan-2-amine], for which the midpoint of inhibition, the IC50, lay at 285 nM.
Under `COC(=O)Nc1cc(-c2ccc(OC[C@](C)(N)CC(C)C)c(C)n2)ccn1` [Example 173, (R)-methyl (5-((2-amino-2,4-dimethylpentyl)oxy)-6-methyl-[2,4′-bipyridin]-2′-yl)carbamate] stands 42 nM.
For `CC(C)C[C@@](C)(N)COc1ccc(-c2ccnc(C(F)F)c2)nc1C(F)F` [Example 174, (R)-1-((2′,6-bis(difluoromethyl)-[2,4′-bipyridin]-5-yl)oxy)-2,4-dimethylpentan-2-amine] the value was 54 nM; for `CC(C)C[C@@](C)(N)COc1cnc(-c2ccnc(C(F)F)c2)cc1C(F)F` [Example 175, (R)-1-((2′,4-bis(difluoromethyl)-[2,4′-bipyridin]-5-yl)oxy)-2,4-dimethylpentan-2-amine], 17 nM.
Under `CC(C)C[C@](C)(O)COc1cnc(-c2ccnc3ccccc23)cc1C(F)F` [Example 176, (S)-1-((4-(difluoromethyl)-6-(quinolin-4-yl)pyridin-3-yl)oxy)-2,4-dimethylpentan-2-ol] stands 53 nM.
With `COC(=O)Nc1cc(-c2cc(C(F)F)c(OC[C@@](C)(O)CC(C)C)cn2)ccn1` [Example 177, (S)-methyl (4-(difluoromethyl)-5-((2-hydroxy-2,4-dimethylpentyl)oxy)-[2,4′-bipyridin]-2′-yl)carbamate], the IC50 was 8.7 nM.
Take `Cc1cc(-c2cc(C(F)F)c(OC[C@@](C)(O)CC(C)C)cn2)ccn1` [Example 178, (S)-1-((4-(difluoromethyl)-2′-methyl-[2,4′-bipyridin]-5-yl)oxy)-2,4-dimethylpentan-2-ol]: half-maximal inhibition (IC50) required 150 nM.
Under `COC(=O)Nc1cc(-c2ccc(OC[C@](N)(CF)CC(C)C)c(C(F)F)n2)ccn1` [Example 179, (S)-methyl (5-((2-amino-2-(fluoromethyl)-4-methylpentyl)oxy)-6-(difluoromethyl)-[2,4′-bipyridin]-2′-yl)carbamate] stands 2 nM; under `COC(=O)Nc1cc(-c2ccc(OC[C@@](N)(CF)CC(C)C)c(C(F)F)n2)ccn1` [Example 180, (R)-methyl (5-((2-amino-2-(fluoromethyl)-4-methylpentyl)oxy)-6-(difluoromethyl)-[2,4′-bipyridin]-2′-yl)carbamate], 24 nM; under `COC(=O)Nc1cc(-c2cc(C(F)F)c(OC[C@](N)(CF)CC(C)C)cn2)ccn1` [Example 181, (S)-methyl (5-((2-amino-2-(fluoromethyl)-4-methylpentyl)oxy)-4-(difluoromethyl)-[2,4′-bipyridin]-2′-yl)carbamate], 1.9 nM.
Under `COC(=O)Nc1cc(-c2cc(C(F)F)c(OC[C@@](N)(CF)CC(C)C)cn2)ccn1` [Example 182, (R)-methyl (5-((2-amino-2-(fluoromethyl)-4-methylpentyl)oxy)-4-(difluoromethyl)-[2,4′-bipyridin]-2′-yl)carbamate] stands 8.7 nM; under `CC(C)C[C@@](N)(CF)COc1ccc(-c2ccnc(C(F)F)c2)nc1C(F)F` [Example 183, (S)-1-((2′,6-bis(difluoromethyl)-[2,4′-bipyridin]-5-yl)oxy)-2-(fluoromethyl)-4-methylpentan-2-amine], 8.8 nM; under `CC(C)C[C@@](N)(CF)COc1cnc(-c2ccnc(C(F)F)c2)cc1C(F)F` [Example 184, (S)-1-((2′,4-bis(difluoromethyl)-[2,4′-bipyridin]-5-yl)oxy)-2-(fluoromethyl)-4-methylpentan-2-amine], 3.3 nM.
For `CC(C)C[C@](N)(CF)COc1ccc(-c2ccnc(C(F)F)c2)nc1C(F)F` [Example 185, (R)-1-((2′,6-bis(difluoromethyl)-[2,4′-bipyridin]-5-yl)oxy)-2-(fluoromethyl)-4-methylpentan-2-amine] the value was 66 nM; for `CC(C)C[C@](N)(CF)COc1cnc(-c2ccnc(C(F)F)c2)cc1C(F)F` [Example 186, (R)-1-((2′,4-bis(difluoromethyl)-[2,4′-bipyridin]-5-yl)oxy)-2-(fluoromethyl)-4-methylpentan-2-amine], 18 nM.
`Cc1cc(-c2cc(C(F)F)c(OC[C@](N)(CF)CC(C)C)cn2)ccn1` [Example 187, (S)-1-((4-(difluoromethyl)-2′-methyl-[2,4′-bipyridin]-5-yl)oxy)-2-(fluoromethyl)-4-methylpentan-2-amine] returned an IC50 of 2.2 nM.
For the compound `Cc1cc(-c2cc(C(F)F)c(OC[C@@](N)(CF)CC(C)C)cn2)ccn1` [Example 188, (R)-1-((4-(difluoromethyl)-2′-methyl-[2,4′-bipyridin]-5-yl)oxy)-2-(fluoromethyl)-4-methylpentan-2-amine], 92 nM corresponded to half-maximal inhibition (IC50).
Under `CC(C)C[C@](C)(N)COc1ncc(-c2ccnc3cc(F)ccc23)cc1Cl` [Example 190, (S)-1-((3-chloro-5-(7-fluoroquinolin-4-yl)pyridin-2-yl)oxy)-2,4-dimethylpentan-2-amine] stands 1.2 nM; under `CC(C)C[C@](C)(N)COc1ncc(-c2ccnc3ccc(F)cc23)cc1Cl` [Example 191, (S)-1-((3-chloro-5-(6-fluoroquinolin-4-yl)pyridin-2-yl)oxy)-2,4-dimethylpentan-2-amine], 0.99 nM.
